What was measured:
tumor cells = experiment: Cell-based proliferation (sensitization) assay (Example 2); conditions: ratio of GI90 of the chemotherapy agent in absence to that in presence of Chk1 inhibitor
Experimental: Chk1 inhibitors were tested in a cell-based proliferation assay for the ability to sensitize tumor cells to ionizing radiation or chemotherapy agents. Chk1 inhibitors were tested in combination with 5-FU, gemicitabine, ionizing radiation, camptothecin, etoposide, hydroxyurea, cisplatin, fludarabine, Ara-C and aphidicolin. For each experiment, a serial dilution of each compound in combination with a ten-point dilution of each chemotherapy agent was included, in order to determine the concentration of chemotherapeutic required to inhibit the growth of 90% (GI90) of the cells in the presence and absence of the Chk1 inhibitor. This ratio of GI90 in the absence of Chk1 inhibitor to that in the presence of Chk1 inhibitor is called the “fold sensitization.” Fold sensitization was plotted as a function of Chk1 inhibitor concentration and the amount of drug required to yield two-fold sensitization was calculated. […] Another parameter analyzed was the fold sensitization achieved at the LD50 (the dose of compound alone that inhibits growth of 50% of cells) for the compound. These two values allow direct ranking of both the potency and toxicity of Chk1 inhibitors with respect to one another.

137-62 tumors = experiment: H3-P staining in 137-62 tumors after gemcitabine; format: in vivo, rat
Experimental: Chem. 271:13197-201. 1996; Goto et al., J Biol Chem. 274:25543-9, 1999). The assay protocol was as follows. Tumors from rodents treated or untreated with Chk1 activator (in the present study, chemotherapy agent) and/or Chk1 inhibitor, were excised and paraffin embedded. The tumors are cut into 6 micron thick slices and mounted on glass slides. […] The slides are then heated to 95° C. in 10 mM sodium citrate for 10 minutes followed by a 20 minute cooling step. The slides are blocked for 30 minutes with Block buffer (20% normal human serum and 2% bovine serum albumin in phosphate buffered saline containing 0.05% Triton X-100 (PBST)). The anti-phospho histone H3 antibody (Upstate Biotech, Cat. #06-570) is diluted 1:200 in the Block buffer and incubated with the slides for one hour. The slides are washed 3 times 5 minutes in PBST. The secondary antibody, donkey anti-rabbit rhodamine (Jackson, cat #711-295-152) was added for 30 minutes. The slides were then washed twice in PBST and […] of […] DAPI (Sigma) in PBS is added and allowed to stain for 30 minutes. The slides were then washed two more times in PBST and mounted with Vectashield (Vector, cat # H-1400). Slides were viewed using fluorescence microscopy. The percentage of cells stained with H3-P antibody relative to total (DAPI stained) cells were quantified using Metamorph software (Universal Imaging Corporation, Version 4.6). […]

Chk1 = Chk1 serine 317 and 345 phosphorylation, Western blot in HT29 cells; format: cell-based, human; conditions: 20 μM gemcitabine for two hours, 22 additional hours
Description: To determine whether an agent is a Chk1 activator, the phosphorylation state of Chk1 can be measured using phospho-specific antibodies to specific phosphorylation sites on Chk1. […] Liu, Q., et al., (2000) Genes Dev. 14, 1448-1459; Zhao, H., et al., (2001) Mol. Cell. Biol. 21, 4129-4139; Lopez-Girona, A., et al., (2001) Proc. Natl. Acad. Sci. U.S.A. 98, 11289-11294; Guo, Z., et al., (2000). Genes Dev. 14, 2745-2756; Gatei, M., et al., (2003) J. Biol. Chem. 278, 14806-14811; Ng C P, et al., J Biol Chem. 2004 Mar. 5; 279(10):8808-19; Wang Y, et al., Natl Acad Sci USA. 2003 Dec. 23; 100(26):15387-92; Stojic L, et al., Genes Dev. 2004 Jun. 1; 18(11):1331-44. These serine sites are phosphorylated by upstream checkpoint kinases, Atm and Atr. Liu, Q., et al., S. J. (2000) Genes Dev. 14, 1448-1459; Zhao, H., et al. (2001) Mol. Cell. Biol. 21, 4129-4139).
The phosphorylation of these sites in response to a candidate Chk1 activator can be monitored by Western blot or immunohistochemistry of tumor cells. […] HT29 cells were treated with 20 μM gemcitabine for two hours. The gemcitabine was washed out of the cell growth media and cells were incubated for 22 additional hours. Protein lysates were prepared and separated by an SDS-polyacrylamide gel electrophoresis. […]

SMILES: Nc1ccn([C@@H]2O[C@H](CO)[C@@H](O)C2(F)F)c(=O)n1 [gemcitabine]
- Fold Sensitization to Agent by Chk1 Inhibitor (tumor cells): 12 fold
- time at which cells exited S phase arrest (137-62 tumors; 137-62 cells, after gemcitabine): 24 h
- time of lowest H3-P staining (137-62 tumors; 137-62 tumors treated with gemcitabine): 12 h
- phosphorylation of Chk1 serines 317 and 345 (Chk1): results in the phosphorylation of both serines 317 and 345
